Laboratory results reported in US6512000B1, “Aminocarbonyl-substituted benzimidazoles having tryptase-inhibitory activity” (Boehringer Ingelheim Pharma KG, priority 1999, dated 2003).
Structures can show the parent of a compound that is named as a salt.

Target: T1, rh beta tryptase (Homo sapiens, UniProt P20231)
T1 construct: purchased Promega
Experiment: Tryptase inhibition test (cleavage of N-p-tosyl-Gly-Pro-Lys-para-nitroaniline, p-nitroaniline measured at 405 nm)
Assay type: biochemical
Settings: concentration at which 50% of the tryptase enzyme activity is inhibited; substrate 0.6 mM, pH 7.4, 37° C.
Experimental: The compounds according to the invention are characterised by their tryptase-inhibiting activity. This ability to inhibit tryptase was investigated using the test described below.
The measurement is carried out in Tris HCl buffer (100 mM), which additionally contains calcium (5 mM) and heparin ([…]), at pH 7.4. The standard used is rh beta tryptase which may be obtained commercially from Promega, for example. The substrate used is N-p-tosyl-Gly-Pro-Lys-para-nitroaniline in a concentration of 0.6 mM. The substrate is digested with tryptase to form p-nitroaniline which can be measured at 405 nm. Usually, an incubation period of 5 minutes and an incubation temperature of 37° C. are chosen. The enzyme activity used is 0.91 U/ml. The measurements are carried out in an Autoanalyser (Cobas Bio) made by Hofmann LaRoche. The potential inhibitory substances are used in concentrations of 10 μM in the screening, the inhibition of the tryptase being given in percent. The IC50 is determined at over 70% inhibition (concentration at which 50% of the enzyme activity is inhibited). After 5 minutes' pre-incubation of the potential inhibitory substances, the substrate is added to start the reaction, the formation of p-nitroaniline being taken as a measurement of the enzyme activity after 5 minutes, after testing the linearity.
The data obtained after the above test has been carried out (% inhibition) are assembled in Table 25 for the compounds according to the invention. The IC50 values obtained for the compounds according to the invention can be found in Table 26.
Table 26 contains the IC50 binding values obtained for the compounds according to the invention. These were measured as described above.

T1 sequence (P20231 31-275): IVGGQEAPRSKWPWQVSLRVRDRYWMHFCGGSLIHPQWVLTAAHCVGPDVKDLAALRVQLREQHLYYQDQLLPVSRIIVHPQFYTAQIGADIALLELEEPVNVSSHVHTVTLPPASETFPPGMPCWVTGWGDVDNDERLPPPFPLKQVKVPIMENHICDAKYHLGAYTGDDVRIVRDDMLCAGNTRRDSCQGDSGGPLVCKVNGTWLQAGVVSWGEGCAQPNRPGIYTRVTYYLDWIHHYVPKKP

IC50 | Compound
201 nM | Cn1c(CCc2ccc(C(=N)N)cc2)nc2cc(C(=O)N(CCC(=N)N)Cc3cnc4ccccc4c3)ccc21 [Example 8, 2-[2-(4-Amidinophenyl)-ethyl]-1-methyl-benzimidazol-5-yl-carboxylic Acid-N-(2-amidinoethyl)-N-(quinolin-3-yl-methyl)-amide-dihydrochloride]
760 nM | N=C(N)c1ccc(CCc2nc3cc(C(=O)N(Cc4ccc(CN)cc4)Cc4ccc5ccccc5c4)ccc3n2CC2CC2)cc1 [Example 234, 2-[2-(4-amidinophenyl)ethyl]-1-cyclopropylmethyl-benzimidazol-5-yl-carboxylic acid-N-[4-(amino-methyl)-benzyl]-N-(2-naphthylmethyl)-amide]
107 nM | Cn1c(CCc2ccc(C(=N)N)cc2)nc2cc(C(=O)N(CCC(c3ccccc3)c3ccccc3)Cc3ccc(C(=N)N)cc3)ccc21 [Example 17, 2-[2-(4-Amidinophenyl)-ethyl]-1-methyl-benzimidazol-5-yl-carboxylic Acid-N-(4-amidinobenzyl)-N-(3,3-diphenylpropyl)-amide-dihydrochloride]
626 nM | N=C(N)c1ccc(CCc2nc3cc(C(=O)N(CCN)Cc4ccccc4F)ccc3n2CC2CC2)cc1 [Example 410, 2-[2-(4-amidinophenyl)ethyl]-1-cyclopropylmethyl-benzimidazol-5-yl-carboxylic acid-N-(2-aminoethyl)-N-(2-fluorobenzyl)-amide]
515 nM | 2-[2-(4-amidinophenyl)ethyl]-1-cyclopropylmethyl-benzimidazol-5-yl-carboxylic acid-N-[4-(amino-methyl)-benzyl]-N-(2-pyridyl)-amide [Example 122]
231 nM | Cn1c(CCc2ccc(C(=N)N)cc2)nc2cc(C(=O)N3CCN(c4ccccn4)CC3)ccc21 [Example 52, 2-[2-(4-Amidinophenyl)-ethyl]-1-methyl-benzimidazol-5-yl-carboxylic Acid-[N′-(2-pyridyl)-piperazide]]
158 nM | CCOC(=O)C(Cc1ccc(C(=N)N)cc1)N(C)C(=O)c1ccc2c(c1)nc(CCc1ccc(C(=N)N)cc1)n2C (centres unmarked) [Example 29, Ethyl 2-{2-[2-(4-Amidinophenyl)-ethyl]-1-methyl-benzimidazol-5-yl-carbonyl-(methylamino)}-3-(4-amidinophenyl)-propionate-formate]
49 nM | Cn1c(CCc2ccc(C(=N)N)cc2)nc2cc(C(=O)N(CCC(=N)N)c3cccc(Oc4ccccc4)c3)ccc21 [Example 23, 2-[2-(4-Amidinophenyl)-ethyl]-1-methyl-benzimidazol-5-yl-carboxylic Acid-N-(2-amidinoethyl)-N-(3-phenoxy-phenyl)-amide-dihydrochloride]

Same assay, conditions: inhibition of rh beta tryptase at 10 μM test substance; substrate N-p-tosyl-Gly-Pro-Lys-para-nitroaniline 0.6 mM, pH 7.4, 37° C., 5 minutes

Compound | inhibition at 10 µM | % Inhibition (10 μM)
N=C(N)c1ccc(CCc2nc3cc(C(=O)N(Cc4ccc(CN)cc4)Cc4ccccc4F)ccc3n2CCc2ccccc2)cc1 [Example 219, 2-[2-(4-amidinophenyl)ethyl]-1-(2-phenylethyl)-benzimidazol-5-yl-carboxylic acid-N-[4-(amino-methyl)-benzyl]-N-(2-fluorobenzyl)-amide] | 51% | 
N=C(N)c1ccc(CCc2nc3cc(C(=O)N(Cc4ccc(CN)cc4)Cc4ccc5ccccc5c4)ccc3n2CCc2ccccc2)cc1 [Example 235, 2-[2-(4-amidinophenyl)ethyl]-1-(2-phenylethyl)-benzimidazol-5-yl-carboxylic acid-N-[4-(amino-methyl)-benzyl]-N-(2-naphthylmethyl)-amide] | 52% | 
N=C(N)c1ccc(CCc2nc3cc(C(=O)N(CCN)Cc4ccc(Cl)cc4)ccc3n2CC2CCCO2)cc1 (centres unmarked) [Example 386, 2-[2-(4-amidinophenyl)ethyl]-1-(tetrahydrofuran-2-yl-methyl)-benzimidazol-5-yl-carboxylic acid-N-(2-aminoethyl)-N-(4-chlorbenzyl)-amide] |  | 55%
N=C(N)c1ccc(CCc2nc3cc(C(=O)N(Cc4ccc(Cl)cc4)Cc4ccc(CN)cc4)ccc3n2CCc2ccccc2)cc1 [Example 187, 2-[2-(4-amidinophenyl)ethyl]-1-(2-phenylethyl)-benzimidazol-5-yl-carboxylic acid-N-[4-(amino-methyl)-benzyl]-N-(4-chlorbenzyl)-amide] |  | 63%
N=C(N)c1ccc(CCc2nc3cc(C(=O)N(Cc4ccccc4)Cc4ccc(CN)cc4)ccc3n2CCCN2CCOCC2)cc1 [Example 113, 2-[2-(4-amidinophenyl)ethyl]-1-[3-(morpholin-4-yl)-propyl]-benzimidazol-5-yl-carboxylic acid-N-[4-(amino-methyl)-benzyl]-N-benzyl-amide] | 56% | 
N=C(N)c1ccc(CCc2nc3cc(C(=O)N(Cc4ccc(Cl)cc4)Cc4ccc(CN)cc4)ccc3n2CC2CCCO2)cc1 (centres unmarked) [Example 194, 2-[2-(4-amidinophenyl)ethyl]-1-(tetrahydrofuran-2-yl-methyl)-benzimidazol-5-yl-carboxylic acid-N-[4-(amino-methyl)-benzyl]-N-(4-chlorbenzyl)-amide] |  | 61%
N=C(N)c1ccc(CCc2nc3cc(C(=O)N(Cc4ccc(Cl)cc4)Cc4ccc(CN)cc4)ccc3n2CCCNC(=O)Cc2ccccc2)cc1 [Example 184, 2-[2-(4-amidinophenyl)ethyl]-1-[3-(benzylcarbonylamino)-propyl]-benzimidazol-5-yl-carboxylic acid-N-[4-(amino-methyl)-benzyl]-N-(4-chlorbenzyl)-amide] |  | 72%
COc1cccc(CN(Cc2ccc(CN)cc2)C(=O)c2ccc3c(c2)nc(CCc2ccc(C(=N)N)cc2)n3CCCNC(=O)Cc2ccccc2)c1 [Example 72, 2-[2-(4-amidinophenyl)ethyl]-1-[3-(benzylcarbonylamino)-propyl]-benzimidazol-5-yl-carboxylic acid-N-[4-(amino-methyl)-benzyl]-N-(3-methoxybenzyl)-amide] | 69% | 
2-[2-(4-amidinophenyl)ethyl]-1-{3-[4-(2-methylphenyl)-piperazin-1-yl]-propyl}-benzimidazol-5-yl-carboxylic acid-N-[4-(amino-methyl)-benzyl]-N-(3-pyridyl)-amide [Example 144] |  | 54%
2-[2-(4-amidinophenyl)ethyl]-1-cyclopropylmethyl-benzimidazol-5-yl-carboxylic acid-N-[4-(amino-methyl)-benzyl]-N-(2-pyridyl)-amide [Example 122] |  | 70%
CCCCN(CCN)C(=O)c1ccc2c(c1)nc(CCc1ccc(C(=N)N)cc1)n2CC1CCCO1 (centres unmarked) [Example 290, 2-[2-(4-amidinophenyl)ethyl]-1-(tetrahydrofuran-2-yl-methyl)-benzimidazol-5-yl-carboxylic acid-N-(2-aminoethyl)-N-n-butyl-amide] | 70% | 

Second part, the compound after the results:

inhibition at 10 µM | % Inhibition (10 μM) | Compound
55% |  | CCCCN(CCCC)CCCn1c(CCc2ccc(C(=N)N)cc2)nc2cc(C(=O)N(CCN)Cc3ccccc3)ccc21 [Example 295, 2-[2-(4-amidinophenyl)ethyl]-1-(3-di-n-butylaminopropyl)-benzimidazol-5-yl-carboxylic acid-N-(2-aminoethyl)-N-benzyl-amide]
51% |  | Cc1ccccc1N1CCN(CCCn2c(CCc3ccc(C(=N)N)cc3)nc3cc(C(=O)N(CCN)CC4CCCCC4)ccc32)CC1 [Example 352, 2-[2-(4-amidinophenyl)ethyl]-1-{3-[4-(2-methylphenyl)-piperazin-1-yl]-propyl}-benzimidazol-5-yl-carboxylic acid-N-(2-aminoethyl)-N-cyclohexylmethyl-amide]
57% |  | N=C(N)c1ccc(CCc2nc3cc(C(=O)N(CCN)Cc4ccccc4)ccc3n2CC2CC2)cc1 [Example 298, 2-[2-(4-amidinophenyl)ethyl]-1-cyclopropylmethyl-benzimidazol-5-yl-carboxylic acid-N-(2-aminoethyl)-N-benzyl-amide]
53% |  | COC(=O)c1ccc(CN(Cc2ccc(CN)cc2)C(=O)c2ccc3c(c2)nc(CCc2ccc(C(=N)N)cc2)n3CCc2ccc(Cl)cc2)cc1 [Example 444, 2-[2-(4-amidinophenyl)ethyl]-1-[2-(4-chlorophenyl)ethyl]-benzimidazol-5-yl-carboxylic acid-N-[4-(amino-methyl)-benzyl]-N-[4-(methoxycarbonyl)-benzyl]-amide]
 | 62% | CCOCCCn1c(CCc2ccc(C(=N)N)cc2)nc2cc(C(=O)N(CCN)Cc3ccc(Cl)cc3)ccc21 [Example 374, 2-[2-(4-amidinophenyl)ethyl]-1-(3-ethoxypropyi)-benzimidazol-5-yl-carboxylic acid-N-(2-aminoethyl)-N-(4-chlorbenzyl)-amide]
 | 59% | Cc1ccccc1N1CCN(CCCn2c(CCc3ccc(C(=N)N)cc3)nc3cc(C(=O)N(CCN)Cc4ccc(Cl)cc4)ccc32)CC1 [Example 384, 2-[2-(4-amidinophenyl)ethyl]-1-{3-[4-(2-methylphenyl)-piperazin-1-yl]-propyl} -benzimidazol-5-yl-carboxylic acid-N-(2-aminoethyl)-N-(4-chlorbenzyl)-amide]
58% |  | N=C(N)c1ccc(CCc2nc3cc(C(=O)N(CCN)CC4CCCCC4)ccc3n2CC2CCCO2)cc1 (centres unmarked) [Example 354, 2-[2-(4-amidinophenyl)ethyl]-1-(tetrahydrofuran-2-yl-methyl)-benzimidazol-5-yl-carboxylic acid-N-(2-aminoethyl)-N-cyclohexylmethyl-amide]
